Measured values from PubChem BioAssay (NCI).
Values joined by “and” are separate entries in the source; they are usually repeats but may differ in a detail not shown here. Equal values may be shown once.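 Each compound was tested at five concentrations against cells in 96-well plates for 48 hours. At the GI50, growth is halved. TGI marks complete inhibition of growth.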

Experiments:
Experiment in all cases: inhibition of tumour cell growth, NCI panel, 48 h
[1] = tested on: HCC-2998 colon
[2] = tested on: HCT-116 colon
[3] = tested on: HL-60(TB) leukemia
[4] = tested on: K-562 leukemia
[5] = tested on: M14 melanoma
[6] = tested on: MALME-3M melanoma
[7] = tested on: MDA-MB-231 breast
[8] = tested on: NCI-H23 lung
[9] = tested on: NCI-H522 lung
[10] = tested on: UACC-62 melanoma

| Structure (SMILES) | GI50 [1] | GI50 [2] [µM] | TGI [2] [µM] | GI50 [3] | TGI [3] | GI50 [4] | TGI [4] [µM] | GI50 [5] [µM] | TGI [5] [µM] | TGI [6] [µM] | GI50 [7] | TGI [7] [µM] | GI50 [8] | TGI [8] [µM] | GI50 [9] [µM] | TGI [9] [µM] | GI50 [10] | TGI [10] [µM] | TGI [1] [µM] | GI50 [6] [µM] |
| --- | --- | --- | --- | --- | --- | --- | --- | --- | --- | --- | --- | --- | --- | --- | --- | --- | --- | --- | --- | --- |
| COc1ccc2c(c1)C(c1cc(OC)c3c(c1)OCO3)C1=C(COC1=O)N2 (stereo not drawn) | 0.432 µM | 0.417 | > 34.8 | 0.285 µM | 1.07 µM | 0.264 µM | > 100 | 0.233 | 0.742 | > 100 | 0.654 µM | > 39.8 | 0.346 µM | > 64.9 | 0.039 | 0.232 | 0.0984 µM | > 100 |  |  |
| CN(C)Cc1c(C(=O)NCCOc2ccc(C(=O)NO)cc2)oc2ccccc12 | 0.22 µM | 0.0705 | 0.502 | 0.303 µM | 2.19 µM | 0.307 µM | > 100 | 0.223 | 1.68 | 36.2 | 0.392 µM | 18.2 | 0.267 µM | 2.06 | 0.0819 | 0.574 | 0.151 µM | 0.63 | 0.83 | 0.0709 |
| O=C(O)Cc1ccc(N=Nc2c(O)c(C(=O)O)cc3ccccc23)cc1 |  |  | > 100 |  | > 100 µM |  | > 100 |  | > 100 | > 100 |  | > 100 |  |  |  |  |  | > 100 | > 100 |  |
| CC(C)C(=O)c1c(C(F)(F)F)n([O-])c2ccccc2[n+]1=O | 1.74 µM | 1.25 | 3.99 |  |  | 0.508 µM | > 27.1 | 1.74 | 3.76 | 2.03 | 1.58 µM | 3.58 | 1.67 µM | 3.41 | 1.76 | 15.1 | 1.59 µM | 3.44 | 4.04 | 0.654 |
| C=CCOC(=O)Nc1cccn([C@H](CC(C)C)C(=O)NCCC(C)C)c1=O |  | 49.6 | > 100 | 58.9 µM | > 100 µM | 96 µM | > 100 | > 100 | > 100 | > 100 | 21.1 µM | 67.2 | 57.2 µM | > 100 | 63.8 | > 100 | > 100 µM | > 100 |  | > 100 |
| COc1cc2c(c(OC)c1OC)-c1c(c3ccc([N+](=O)[O-])cc3c(=O)n1CCCN)C2=O | 9.12 µM | 0.828 | 1.53 |  |  | 0.478 µM | 1.33 | 0.835 | 1.53 | 1.92 | 0.908 µM | 1.74 | 2.35 µM | 10.2 | 9.63 | 19.1 | 9.12 µM | 17 | 17.6 | 0.952 |
| O=c1cccc2n1CC1CNC[C@H]2C1 |  |  | > 100 |  |  |  | > 100 |  | > 100 | > 100 |  | > 100 |  | > 100 |  | > 100 |  | > 100 | > 100 |  |
| C=C1C(=O)C2=CC1CCC(=O)C1(C)CCC(OC(C)=O)C(C)(C)C1CC2O (stereo not drawn) |  |  | > 21.2 |  |  |  |  |  | 10.4 | 18.1 |  | 18 |  | 8.62 |  | 2.19 |  | 5.96 | 4 |  |
| COC(=O)[C@@H](C)C[C@H](Cc1ccccc1)NC(=O)c1csc([C@@H](C[C@H](C(C)C)N(C)C(=O)[C@@H](NC(=O)[C@H]2CCCN2C)C2CC2)OC(C)=O)n1 | 0.00431 µM and 0.0025 µM | 0.000389 |  | 0.000219 µM and < 0.0025 µM | 0.000738 µM and < 0.0025 µM | 0.000352 µM and 0.0025 µM | > 25 |  |  | > 25 | 0.00165 µM and < 0.0025 µM | < 0.0025 | 0.00365 µM and 0.0025 µM | > 25 | 0.000223 | 0.000814 | 0.000445 µM and 0.0025 µM | > 25 | > 25 | 4.41 |
| CCCCCCCCCCCCCCCCN(CC)CC | 1.77 µM | 1.77 | 3.22 |  |  |  |  | 1.94 | 3.84 | 4.35 | 1.75 µM | 3.21 | 2.83 µM | 9 | 1.76 | 3.48 | 1.75 µM | 3.28 | 3.3 | 1.92 |
| N#CC1=C(N)Oc2c(sc3c(Br)cccc23)C1c1ccc(Cl)cc1 (stereo not drawn) | 1.57 µM | 0.429 | 1.79 | 0.357 µM | 1.88 µM | 0.322 µM | 3.54 | 0.45 | 2.65 |  | 1.32 µM | 4.69 | 0.821 µM | 4.86 | 0.367 | 2.43 | 0.435 µM | 8.35 | 6.29 |  |
| O=C1c2cc(F)ccc2-c2c1c1ccc([N+](=O)[O-])cc1c(=O)n2CCCBr | 10.7 µM | 7.23 | 36.7 |  |  | 22.4 µM | > 100 | 13.3 | 46.3 | > 100 | > 100 µM | > 100 | 18.4 µM | 85.4 | 4.87 | > 100 | 22.8 µM | 77.7 | > 100 | 66.3 |
| C=C1C(=O)O[C@H]2[C@H]1CC/C(CNC(=O)/C=C/c1ccccc1F)=C\CC[C@@]1(C)O[C@@H]21 | 1.88 µM | 0.482 | 1.69 |  |  | 0.577 µM | 7.45 | 1.34 | 3.05 | 3.52 | 1.93 µM | 4.44 | 1.88 µM | 4.42 | 0.399 | 1.64 | 1.47 µM | 2.94 | 3.59 | 1.54 |
| N#Cc1c(N/N=C\c2ccc(Cl)cc2)nc(N)nc1N1CCOCC1 | 22 µM | 29.7 | > 100 | 9.84 µM | 27.2 µM | 13 µM | 32.3 | 67.4 | > 100 |  | 25.3 µM | > 100 | 87.8 µM | > 100 | 32.5 | > 100 | 25.4 µM | > 100 | > 100 |  |
| COC(=O)CNc1nc(N(C)O)nc(N(C)O)n1 |  | 1.98 | > 100 |  |  | 2.43 µM | > 100 | 3.38 | 32.6 | 77.4 | 4.16 µM | > 100 | 11.5 µM | > 100 | 3.73 | > 100 | 4.3 µM | 29.1 |  | 19.3 |
